# Measurements published in patent US10391070B2, “Compositions and methods for treating neurological diseases or injury” (MUSC FOUNDATION FOR RESEARCH DEVELOPMENT, priority 2012, dated 2019).
# What was measured:
# HDAC = HDAC isozymes inhibited; cited from earlier work
# PTZ-induced seizures = assay: PTZ-induced seizure (swim activity) model in zebrafish larvae; format: in vivo, zebrafish (Danio rerio)
# Procedure: The DanioVision locomotion tracking instrument with Ethovision XT software (Noldus) was used to measure the severity of the seizures by quantifying the locomotor activity of each fish.
# In a 48-well plate, one 6-7 dpf larva was added per well. Compounds were given at a sub-lethal dose and treated for 1 h. Three control rows were included—tank water (TW) only, PTZ only and PTZ+VPA (2-4 mM final concentration of VPA). […] After 5 min, the plate was transferred to the Daniovision apparatus and the chamber light was turned on. After 2 min, Ethovision was used to determine the distance traveled (a marker of seizure of activity) by each fish for 15 min (25 frames per second). Velocity, duration of movement, and frequency of movement were also determined from the same recording. After measurement, fish were monitored visually for survival. The distance moved over the recording period with Ethovision XT software (Noldus) was averaged over 8 wells per treatment unless the fish was not detected.
# In a 48-well plate, one 7 dpf zebrafish was added per well. Larvae were dosed with each compound at a sub-lethal dose 1 h prior to PTZ treatment. Three control rows were included with each experiment—tank water only control, PTZ only and PTZ+VPA (4 mM final concentration of VPA). […] After 5 min, the plate was transferred to the Daniovision instrument (Noldus Information Technology) and the chamber light was turned on. After 2 min, MediaRecorder (Noldus) was used to record video for 15 min. A small number of videos were acquired 25 frames per second, but the majority of the data was acquired at the frame rate of 60 frames per second. After recording, fish were monitored visually for survival. Ethovision XT software (Noldus) was used to track the fish movement from the video images in order to calculate the total distance traveled over 15 min. […] All experimental comparisons were made between animals from the same clutch.
# c-fos = c-fos gene expression in PTZ-treated zebrafish larvae; format: in vivo, zebrafish (Danio rerio); details: 7 dpf zebrafish, pre-treatment
# Procedure: Ten 7 dpf larvae were placed in 500 μL tank water in wells of a 48-well cell-culture plate and appropriate concentrations of drugs were added as in the behavior study (Table 9). After a 1 h pre-incubation period, PTZ was added to a final concentration of 15 mM in appropriate wells and larvae were incubated for a further 45 min. Fish were quickly euthanized by incubating the plate in an ice-water bath for 15 min. Fish were removed from each well and all liquid removed before freezing at −80° C. RNA was extracted using Trizol (Invitrogen) followed by the RNeasy Mini kit (Qiagen). Frozen embryos were homogenized in 800 μL Trizol using in-tube pestles and a motorized homogenizer. Following a 5-min incubation at room temperature, 200 μL chloroform was added and the samples were centrifuged at 12,000 g for 10 min. The aqueous phase was transferred to a new tube and 250 μL 100% ethanol was added and the samples mixed. This mixture was then transferred to the Qiagen minicolumn assembly and the protocol followed as described with the kit. Samples were eluted in 30 μL RNase free water and concentration was determined using the Nanodrop instrument (Thermo Fisher). cDNA was prepared using the RETROscript kit (Ambion) with 500 ng total RNA. cDNA was then diluted 1:1 with sterile dH2O and 2.5 μL of this cDNA was used in the QPCR reaction with SsoAdvanced SYBR Green Supermix (BioRad) and c-fos primers designed to span an intron-exon junction (c-fos F: […], SEQ ID NO:9; c-fos R: […], SEQ ID NO:10) ([…] each) in the BioRad CFX96 RealTime instrument. L13a and EF1a gene expression were used for normalization (Rahn et al., 2013). The following cycle conditions were used: 95° C./3 min, 40 cycles of 95° C./15 s, 62° C./30 s, followed by 95° C. 30 s and a dissociation curve. Samples were run in duplicate. The 2^−ΔΔCt method was used to quantify gene expression, whereby all gene Ct values were first normalized to Ct values of the geometric mean of the Ct of L13a and EF1a (Livak and Schmittgen, 2001). Treated samples were then normalized to the tank water control and converted to fold change.
# zebrafish larvae = assay: Zebrafish larval toxicity (NOEC, lethal dose); format: in vivo; details: 7 dpf zebrafish larvae
# Procedure: Using a 96-well plate, one zebrafish larva (7 dpf) was placed in each well in 100 μL of tank water (TW). 100 μL of each compound (0.5-15 μM) was then added to each well for 12 animals (one row) to give a final volume of 200 […]. A control row was tested for DMSO toxicity effects. […] Each drug was assessed for the no observed effect concentration (NOEC), the highest non-lethal dose resulting in no apparent toxic effects.
# Zebrafish (AB strain) were obtained from the Zebrafish International Resource Center (supported by P40 RR012546 from NIH-NCRR). Zebrafish were maintained and crossed according to standard methods (Westerfield, 2000). Fertilized eggs were collected and placed in E3 embryo medium and positioned in an incubator set at 28.5° C. with a 14/10 h light/dark cycle (Kimmel et al., 1995). To determine the lethal dose of each compound, 96-well plates containing one zebrafish (7 days post-fertilization, dpf) per well in 100 μL of tank water were used. 100 μL of each compound (0.5 to 15 μM) was added to each well for 12 animals (one row) for a final volume of 200 μL. One row of larvae was used as DMSO only controls. […] All zebrafish studies were approved by the Medical University of South Carolina Institutional Animal Care and Use Committee (AR #2850) and performed in accordance with the guidelines.
# Using a 96-well plate, one zebrafish larva (7 dpf) was placed in each well in 100 μL of tank water. 100 μL of each compound was then added to each well for 12 animals (one row) for a final volume of 200 μL. One row of zebrafish larvae was used as DMSO only controls. […] Toxicity was also measured in the mouse model by the NIH Anticonvulsant Screening Program at the National Institute of Neurological Disorders and Stroke (Stables and Kupferberg, 1997), according to the established NIH experimental procedures. Compounds were delivered into mice by intraperitoneal (i.p.) injection at a dose of 100 mg/kg in sterile 5% DMSO, 95% Neobee (Josey et al., 2013). Acute toxicity was assessed by monitoring the animals for impaired neuromuscular function by placing treated mice on a rod rotating at 6 rpm. […]
# HT-22 neuronal cells = assay: Respirometry (OCR, ECAR; Seahorse XF-96); format: cell-based, mouse; set-up: ECAR (glycolysis), difference from control: unit not given here; details: HT-22 cells, mean±SEM
# Procedure: Oxygen consumption rates (OCR) and extracellular acidification rates (ECAR) of HT-22 neuronal cells were performed on the XF-96 Extracellular Flux Analyzer (Seahorse Bioscience) using standard methods (Beeson et al., 2010). In brief, cells were cultured in 96 well Seahorse plates in DMEM high glucose media (Invitrogen) supplemented with 10% FBS, 10 mM HEPES, and 1% antibiotic-antimycotic (Invitrogen). The media was replaced with DMEM media supplemented with 25 mM glucose, 10 mM sodium pyruvate, 31 mM NaCl, and 2 mM glutamine at pH 7.4. Each of the four drug ports on the Seahorse sensor cartridge were filled with test compound (media only, 5 μM NQN-1, 10 μM VK3 or 12.5 μM MB), 10 μM oligomycin, 1 μM FCCP, and 5 μM rotenone, which were injected into each well at 20, 80, 110, and 135 min, respectively. The pmol/min OCR rate for each well (9-52 wells/group) was measured. Wells were excluded from the analysis if their OCR values surpassed the Tukey Outlier Rule. In order to standardize the OCR rates across wells, the average OCR value at 17 min (last time point prior to injection of the test compounds) for each experimental group was calculated, and set to 100. All OCR values are given as a percentage of this pre-treatment value. […]
# HT22 cells [1] = assay: Glutathione determination in glutamate-treated cells; format: cell-based, mouse; details: HT22, 10 mM glutamate 8 hrs, 25 μM
# Procedure: The content of total glutathione (reduced and oxidized) in the supernatant of cell homogenate was measured using the glutathione assay kit (Cayman Chemical) in microtiter plate assay, which utilizes an enzymatic recycling method, using glutathione reductase, for the quantification of glutathione. The sulfhydryl group of glutathione reacted with 5,5′-dithiobis-2-nitrobenzoic acid (DTNB) and produced a yellow-colored 5-thio-2-nitrobenzoic acid (TNB), which was measured at 405 nm.
# HT22 cells [2] = assay: t-BuOOH toxicity protection (MTS cell viability); format: cell-based, mouse; details: HT22, 50 μM t-BuOOH
# Procedure: Cell viability was assessed by the ability of the viable cells to metabolize 3-(4,5-dimethylthiazol-2-yl)-5-(3-carboxymethoxyphenyl)-2(4-sulfophenyl)2-H-tetrazolium, inner salt (MTS), as described previously (Cory et al., 1991). The metabolism of tetrazolium salts is often used to measure cellular proliferation, but in the system used here, it has been previously shown to correlate well with cell viability as determined by trypan blue exclusion and colony-forming assays (Davis and Maher, 1994). Briefly, HT-22 cells were seeded onto 96-well plates at 5.0×10^3 cells per well in 75 μL of medium and maintained at 37° C. in 5% CO2 overnight prior to the initiation of experimental treatments. For glutamate toxicity testing, cells were subsequently treated with 25 μL of medium containing glutamate (monosodium glutamate, Sigma, 1 M stock concentration in media, to achieve a final concentration of 10 mM) plus inhibitors (stock in DMSO) and maintained at 37° C. in 5% CO2. For t-BuOOH toxicity testing, cells were subsequently treated with 25 μL of medium containing t-BuOOH (Sigma, 10 mM stock concentration, to achieve a final concentration of 50 μM) plus inhibitors (stock in DMSO) and maintained at 37° C. in 5% CO2 for 3 hours, after which the media was removed, cells washed gently with HBSS, the media replaced with standard culture media, and the cells returned to incubation at 37° C. in 5% CO2. For both glutamate and t-BuOOH treatments, 10 μl of MTS solution was added to each well 24 hrs after initial treatment, and the cells were maintained in growth medium for 2 h at 37° C. Absorbance at 490 nm was subsequently measured by a SpectraMax 190 plate reader (Molecular Devices). The growth medium without cells in the presence of MTS solution was used as solution background and untreated cells were considered the controls. Cell viability was calculated as a percentage compared with untreated controls. EC50 determinations were based on 12-point titrations using GraphPad Prism, and each experiment was repeated at least four times. Morphology of HT22 cells following treatments was determined by phase-contrast microscopy. Digital images of cells grown on cell culture plates were captured at 10× magnification.
# In light of the findings that the protection against glutamate induced cell death provided by VK2, 2q, and 2j, are at least partially mediated by the attenuation of the increased production of endogenous ROS, the inventors also examined the effects of these compounds on tert-butylhydroperoxide (t-BuOOH) induced cell death. t-BuOOH is a short chain analog of the lipid hydroperoxides formed from peroxidation reactions during oxidative stress that is cytotoxic to cells (Lemasters and Nieminen, 1997). […] It is well documented that cells undergo rapid and extensive fragmentation in the early stages of cell death (Bossy-Wetzel et al., 2003; Frank et al., 2001; Breckenridge et al., 2008; Jagasia et al., 2005; Lee et al., 2004). Recent studies have shown that mitochondrial fragmentation is regulated by the translocation of dynamin-related protein 1 (Drp1) from the cytosol to the mitochondria, where it assembles to form spirals at division sites (Smirnova et al., 2001). Although the exact molecular mechanism is still not well studied, the activity of Drp1 is regulated by the phosphorylation and dephosphorylation of specific serine residues by protein kinases and phosphatases such as calcineurin and the PGAM5 (Wang et al., 2012; Chang et al., 2007). […]
# [3] = Antioxidant activity assay (DPPH free radical scavenging); details: 20 μM, 100 μM DPPH in methanol
# Procedure: Antioxidant activity of various reagents was assayed as previously described by monitoring the disappearance of the optical absorbance of the stable-free radical DPPH on reaction with test compounds (Blois, 1958). The rate of the reaction represents the antioxidant potency of test agents. The known free radical scavenger Trolox and ascorbic acid were used as positive controls. Briefly, 10 μL of test reagents at final concentrations of 20 μM were added to 200 μL of 100 μM DPPH in methanol. Optical absorbance of DPPH at 517 nm was immediately monitored for 10 min.
compound,measurement,setting,value
"O=C(NC1=CC(=O)c2ccccc2C1=O)c1ccccc1 [2-benzoylamino-1,4-naphthoquinone]",HDAC Class of Inhibition,HDAC,6
same,concentration required for effective reduction of seizures,PTZ-induced seizures; PTZ-treated zebrafish larvae,3 µM
same,Seizure suppression,"PTZ-induced seizures; PTZ-treated zebrafish larvae, pretreated 1 hr at NOEC",Yes
same,PTZ-induced swim activity (distance traveled),"PTZ-induced seizures; zebrafish larvae, 1 h pretreatment at sub-lethal concentration (VPA 4 mM, NQN-1 3 μM), 15 mM PTZ",significantly suppressed PTZ-induced swim activity
same,PTZ-induced increase in c-fos expression,c-fos,able to blunt this increase in expression
same,Lethal dose,zebrafish larvae; up to 5 h treatment,0.005 mM
same,Highest concentration tested for anti-seizure activity,zebrafish larvae; highest sub-lethal dose,0.003 mM
same,"basal cellular respiration, difference in OCR from control","HT-22 neuronal cells; 1 h treatment, OCR as percentage of pre-treatment value",24.35±1.03
same,"basal mitochondrial respiration, difference from control",HT-22 neuronal cells; basal minus non-mitochondrial (rotenone),15.26±2.29
same,"ATP-linked respiration, difference from control",HT-22 neuronal cells; basal minus oligomycin,16.83±1.83
same,"ECAR (glycolysis), difference from control",HT-22 neuronal cells,1.75±1.12
Cc1c(C)c2c(c(C)c1O)CCC(C)(C(=O)O)O2 (stereo not drawn) [Trolox],depletion of total cellular GSH,HT22 cells [1],did not prevent GSH depletion
same,protection from t-BuOOH induced cell death,HT22 cells [2],less effective
same,free radical scavenging capacity (DPPH absorbance),[3],rapidly scavenged DPPH
COC1=C(OC)C(=O)C(C/C=C(\C)CC/C=C(\C)CC/C=C(\C)CC/C=C(\C)CC/C=C(\C)CC/C=C(\C)CC/C=C(\C)CC/C=C(\C)CC/C=C(\C)CCC=C(C)C)=C(C)C1=O [co-enzyme Q10],protection from t-BuOOH induced cell death,HT22 cells [2],less effective
